In patent publication US8648099B2 (Hoffmann-La Roche Inc., priority 2011, dated 2014):

Tests used:
[1] = tested on: ABCA1 protein; assay: Detection of upregulation of ABCA1 protein in cells (ApoA-I binding, high content imaging); type: cell-based; settings: THP-1 macrophage cells; for % increase of ABCA1 at 3 μM: compound at 3 μM, 24 hrs; for EC50: 24 hrs compound incubation, read-out: EC50 [μM] ABCA1 protein increasing efficacy
Procedure: The ability of compounds of the invention to increase the level of ABCA1 protein is determined in replicate cultures of THP-1 macrophage cells in 96-well microplates. Cells are plated at an initial density of 100,000 cells/well in 100 μl medium and differentiated to adherent macrophages with the addition of PMA (100 nM) for 68 hrs in 10% fetal bovine serum, 3 μl/L of b-mercaptoethanol, RPMI-1640 medium. Then, cells are incubated with RPMI-1640 medium containing 1% FCS, 25 μg/ml acetylated LDL, for 24 hours at 37° C. Following incubation with acetylated LDL, cells are washed twice with 50 μl PBS and incubated with 100 μl of RPMI-1640 medium containing the compound of interest solubilized in DMSO for an additional 24 hrs. The final DMSO concentration in presence of cells is maintained at 0.5%. ApoA-I binding assay using High Content Image Analysis is initiated by replacing with fresh medium, RPMI without Phenol Red, 0.2% BSA containing AlexaFluor®647 labeled ApoA-I for 2 h/37° C./5% CO2. Then, cells are fixed with 4% Formaldehyde in PBS (15 min, RT). Following Nuclei are stained with Hoechst solution (3 μM PBS) and Cytoplasm with Cell Mask Blue (2 μg/ml PBS), 15 min, RT. Finally the stained cells are fixed with a second round of formaldehyde treatment. Fixed stained cells are washed and kept in PBS at 4° C. and can be read immediately until one month after preparation.
The Alexa Fluor 647-labeled Apolipoprotein A-I (20 nM) was prepared as follows: Human recombinant Apolipoprotein A-I (ApoA-I) was exchanged to a buffer of 0.02 M NaHCO3 at pH 8.2 on an NAP desalting column (GE Healthcare) and brought to a concentration to 40 μM (1.13 mg/ml) by adjustment with the same buffer. The ApoA-I was fluorescently labeled by incubation with Alexa Fluor carboxylic acid succimidyl ester (Alexa Fluor 647, Invitrogen A-20006) at a 2:1 molar ratio (Alexa to ApoA-I) for 1 h under shaking at RT. The remaining unconjugated label was removed by buffer exchange to 0.02M NaHCO3 at pH 8.2.
Imaging and data collection were performed on an OPERA confocal microplate imaging reader using a 20× water immersion objective and UV360 or 405 laser to identify the cell nuclei and a 635 laser to identify the fluorescent ApoA-I. Eight fields of view are captured per well. Image capture and analysis was performed with the Acapella software. Background fluorescence detected in control wells without ApoA-I was subtracted.
Using XLfit3 program (ID Business Solutions Ltd. UK), the model 205 for Dose Response One Site is used to calculate the EC50 values. […] More particularly, the compounds of the present invention have EC50 values in a range of 0.1 μM to 3 μm.

[2] = target: T1, human CB1 receptor (Homo sapiens, UniProt P21554); assay: CB1 receptor affinity ([3H]-CP-55,940 displacement, HEK cell membranes); type: binding; settings: displacement of [3H]-CP-55,940 at 10 μM; read-out: CB1 receptor affinity [% inhibition @ 10 μM]
T1 construct: expressed in transfected cells; host or cells: human embryonic kidney (HEK) cells, Semliki Forest Virus system, membrane preparations
T1 sequence (P21554 whole entry): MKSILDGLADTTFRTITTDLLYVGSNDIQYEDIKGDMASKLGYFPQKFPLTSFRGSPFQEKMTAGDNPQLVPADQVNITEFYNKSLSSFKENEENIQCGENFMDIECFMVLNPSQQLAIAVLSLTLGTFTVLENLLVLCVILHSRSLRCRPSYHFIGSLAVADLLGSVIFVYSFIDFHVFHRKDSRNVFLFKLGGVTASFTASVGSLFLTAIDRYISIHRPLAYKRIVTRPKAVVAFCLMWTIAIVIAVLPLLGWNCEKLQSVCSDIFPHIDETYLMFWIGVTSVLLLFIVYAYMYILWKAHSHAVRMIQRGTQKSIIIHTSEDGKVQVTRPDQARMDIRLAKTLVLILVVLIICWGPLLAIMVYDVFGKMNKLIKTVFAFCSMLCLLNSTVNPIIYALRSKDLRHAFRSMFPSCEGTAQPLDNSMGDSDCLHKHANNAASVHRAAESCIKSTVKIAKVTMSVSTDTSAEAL
Procedure: (§1) The affinity of the compounds of the invention for cannabinoid receptors was determined using membrane preparations of human embryonic kidney (HEK) cells in which the human CB1 receptor is transiently transfected using a Semliki Forest Virus system in conjunction with [3H]-CP-55,940 as radioligand. After incubation of freshly prepared cell membrane preparation with the [^3H]-ligand, with or without addition of compounds of the invention, separation of bound and free ligand was performed by filtration over glass fiber filters. Radioactivity on the filter was measured by scintillation counting.
(§2) The ability of the compounds to displace the radioligand [^3H]-CP-55,940 was measured at a concentration of 10 μM and values provided as [% inhibition @ 10 μM] both for the CB1 and CB2 receptor assay, The lower % inhibition is, the lower the likelihood of side effects based on CB1 or CB2 receptor inhibition is.

[3] = target: T2, human CB2 receptor (Homo sapiens, UniProt P34972); assay: CB2 receptor affinity ([3H]-CP-55,940 displacement, HEK cell membranes); type: binding; settings: displacement of [3H]-CP-55,940 at 10 μM
T2 construct: expressed in transfected cells; host or cells: human embryonic kidney (HEK) cells, Semliki Forest Virus system, membrane preparations
T2 sequence (P34972 whole entry): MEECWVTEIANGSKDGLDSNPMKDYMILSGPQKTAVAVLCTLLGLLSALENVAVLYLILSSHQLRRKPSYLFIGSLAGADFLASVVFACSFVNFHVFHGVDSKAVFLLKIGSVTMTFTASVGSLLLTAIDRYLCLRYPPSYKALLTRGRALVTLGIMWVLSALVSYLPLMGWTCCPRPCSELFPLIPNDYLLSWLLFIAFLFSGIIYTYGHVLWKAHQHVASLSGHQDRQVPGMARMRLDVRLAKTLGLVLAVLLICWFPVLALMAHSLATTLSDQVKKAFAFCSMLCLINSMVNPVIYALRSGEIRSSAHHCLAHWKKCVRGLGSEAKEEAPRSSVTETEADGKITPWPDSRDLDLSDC
Procedure: as §1, with “cannabinoid CB2” for “cannabinoid”, “CB2” for “CB1”, “[^3H]-CP-55,940” for “[3H]-CP-55,940”
as §2

Row | SMILES | % increase of ABCA1 at 3 μM [1] [%@ 3 μM] | inhibition at 10 µM [2] [%] | inhibition at 10 µM [3] [%] | EC50 [1] [µM]
1 | O=C(NN1CCCC1)c1cnc(OCC(F)(F)F)c(C2CCCCC2)c1 [Example 21, 5-cyclohexyl-N-(pyrrolidin-1-yl)-6-(2,2,2-trifluoroethoxy)-3-pyridinecarboxamide] | >45 | 39 | -17 | –
2 | CN(NC(=O)c1cnc(OCC(F)(F)F)c(C2CCCCC2)c1)c1ccc(Cl)nn1 [Example 22, N′-(6-chloropyridazin-3-yl)-5-cyclohexyl-N′-methyl-6-(2,2,2-trifluoroethoxy)-3-pyridinecarboxylic acid hydrazide] | – | 28 | -9 | 0.98
3 | COC[C@@H]1CCCN1NC(=O)c1cnc(OCC(F)(F)F)c(C2CCCCC2)c1 [Example 23, 5-cyclohexyl-N—((S)-2-methoxymethyl-pyrrolidin-1-yl)-6-(2,2,2-trifluoro-ethoxy)-3-pyridinecarboxamide] | >45 | 39 | 17 | –
4 | O=C(NN1CCC(CCO)CC1)c1cnc(OCC(F)(F)F)c(-c2ccc(Cl)cc2)c1 [Example 24, 5-(4-chlorophenyl)-N-(4-(2-hydroxyethyl)piperidin-1-yl)-6-(2,2,2-trifluoroethoxy)-3-pyridinecarboxamide] | >45 | 45 | -8 | –
5 | O=C(NN1CCN(CCO)CC1)c1cnc(OCC(F)(F)F)c(-c2ccc(Cl)cc2)c1 [Example 25, 5-(4-chlorophenyl)-N-(4-(2-hydroxyethyl)piperazin-1-yl)-6-(2,2,2-trifluoroethoxy)-3-pyridinecarboxamide] | >45 | 14 | -18 | –
6 | O=C(NN1CCC(CO)CC1)c1cnc(OCC(F)(F)F)c(-c2ccc(Cl)cc2)c1 [Example 26, 5-(4-chlorophenyl)-N-(4-(hydroxymethyl)piperidin-1-yl)-6-(2,2,2-trifluoroethoxy)-3-pyridinecarboxamide] | >45 | 37 | -17 | –
7 | CN1CCN(NC(=O)c2cnc(OCC(F)(F)F)c(-c3ccc(Cl)cc3)c2)CC1=O [Example 27, 5-(4-chlorophenyl)-N-(4-methyl-3-oxopiperazin-1-yl)-6-(2,2,2-trifluoroethoxy)-3-pyridinecarboxamide] | – | 25 | -11 | 2.39
8 | CN(CCCO)NC(=O)c1cnc(OCC(F)(F)F)c(-c2ccc(Cl)cc2)c1 [Example 28, 5-(4-chlorophenyl)-N′-(3-hydroxypropyl)-N′-methyl-6-(2,2,2-trifluoroethoxy)-3-pyridinecarboxylic acid hydrazide] | >45 | 46 | -9 | –
9 | O=C(NN1CC(O)C1)c1cnc(OCC(F)(F)F)c(-c2ccc(Cl)cc2)c1 [Example 29, 5-(4-chlorophenyl)-N-(3-hydroxyazetidin-1-yl)-6-(2,2,2-trifluoroethoxy)-3-pyridinecarboxamide] | >45 | 44 | -10 | –
10 | CN(NC(=O)c1cnc(OCC(F)(F)F)c(C2CC2)c1)c1ccccc1 [Example 30, 5-cyclopropyl-6-(2,2,2-trifluoro-ethoxy)-nicotinic acid N′-methyl-N′-phenyl-hydrazide] | >45 | 24 | 13 | –
11 | O=C(NN1CCS(=O)(=O)CC1)c1cnc(OCC(F)(F)F)c(C2CC2)c1 [Example 31, 5-cyclopropyl-N-(1,1-dioxo-1λ6-thiomorpholin-4-yl)-6-(2,2,2-trifluoro-ethoxy)-nicotinamide] | >45 | -2 | -14 | –
12 | O=C(NN1CCOCC1)c1cnc(OCC(F)(F)F)c(C2CC2)c1 [Example 32, 5-cyclopropyl-N-morpholin-4-yl-6-(2,2,2-trifluoro-ethoxy)-nicotinamide] | – | 14 | -14 | 1.77
13 | COC[C@@H]1CCCN1NC(=O)c1cnc(OCC(F)(F)F)c(C2CC2)c1 [Example 33, 5-cyclopropyl-N—((S)-2-methoxymethyl-pyrrolidin-1-yl)-6-(2,2,2-trifluoro-ethoxy)-nicotinamide] | – | 21 | 3 | 0.68
14 | CN(NC(=O)c1cnc(OCC(F)(F)F)c(C2CC2)c1)c1ccc(F)cc1 [Example 34, 5-cyclopropyl-6-(2,2,2-trifluoro-ethoxy)-nicotinic acid N′-(4-fluoro-phenyl)-N′-methyl-hydrazide] | – | 15 | 8 | 0.83
15 | CN(NC(=O)c1cnc(OCC(F)(F)F)c(C2CCOCC2)c1)c1ccccc1 [Example 35, 5-(tetrahydro-pyran-4-yl)-6-(2,2,2-trifluoro-ethoxy)-nicotinic acid N′-methyl-N′-phenyl-hydrazide] | – | 34 | 25 | 2.35
16 | N#Cc1ccc(-c2cc(C(=O)NN3CCC(O)CC3)cnc2OCC(F)(F)F)cc1 [Example 36, 5-(4-cyano-phenyl)-N-(4-hydroxy-piperidin-1-yl)-6-(2,2,2-trifluoro-ethoxy)-nicotinamide] | – | 10 | -4 | 1.86
17 | N#Cc1ccc(-c2cc(C(=O)NN3CCOCC3)cnc2OCC(F)(F)F)cc1 [Example 37, 5-(4-cyano-phenyl)-N-morpholin-4-yl-6-(2,2,2-trifluoro-ethoxy)-nicotinamide] | – | 47 | -8 | 1.32
18 | N#Cc1ccc(-c2cc(C(=O)NN3CCC(CCO)CC3)cnc2OCC(F)(F)F)cc1 [Example 38, 5-(4-cyano-phenyl)-N-[4-(2-hydroxy-ethyl)-piperidin-1-yl]-6-(2,2,2-trifluoro-ethoxy)-nicotinamide] | – | 37 | -6 | 0.15
19 | CC(C)(C)OC(=O)N1CCC(c2cc(C(=O)NN3CCC(CCO)CC3)cnc2OCC(F)(F)F)CC1 [Example 39, 5-[4-(2-hydroxy-ethyl)-piperidin-1-ylcarbamoyl]-2-(2,2,2-trifluoro-ethoxy)-3′,4′,5′,6′-tetrahydro-2′H-[3,4′]bipyridinyl-1′-carboxylic acid tert-butyl ester] | – | -3 | -5 | 1.8
20 | CN(NC(=O)c1cnc(OCC(F)(F)F)c(C2CCN(C(=O)OC(C)(C)C)CC2)c1)c1ccc(F)cc1 [Example 40, 5-[N′-(4-fluoro-phenyl)-N′-methyl-hydrazinocarbonyl]-2-(2,2,2-trifluoro-ethoxy)-3′,4′,5′,6′-tetrahydro-2′H-[3,4′]bipyridinyl-1′-carboxylic acid tert-butyl ester] | – | 50 | 3 | 0.68
